Usually Ki stands for the equilibrium dissociation constant of an inhibitor or competing ligand from its target.

Consider 23 compounds from patent publication US20240150293A1, “SPIROCYCLOHEXANE DERIVATIVES, PHARMACEUTICAL COMPOSITIONS CONTAINING THEM AND THEIR USES AS ANTI-APOPTOTIC INHIBITORS” (LES LABORATOIRES SERVIER, priority 2021, published 2024).

In the test the target is Mcl-1 protein (UniProtKB Q07820) (Homo sapiens (Human), UniProt Q07820). In words: Inhibition of Mcl-1 by the fluorescence polarisation assay (Example A, Method A). Conditions: fluorescence polarization assay. The format is binding. An outline of the steps:
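Protein (5 nM) and fluorescein-tagged peptide tracer (1 nM) incubated with 11-point compound series for 2 h at room temperature in HEPES/NaCl/Tween 20 buffer, pH 7.4, 5% DMSO. Displacement read as decrease in polarisation; IC50 fitted by 4-parameter logistic, converted to Ki (cKi or eKi).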
For orientation: In fluorescence polarisation assays a small probe gives low polarisation when free and higher when bound to something large.

Mcl-1 protein, sequence (Q07820 whole entry): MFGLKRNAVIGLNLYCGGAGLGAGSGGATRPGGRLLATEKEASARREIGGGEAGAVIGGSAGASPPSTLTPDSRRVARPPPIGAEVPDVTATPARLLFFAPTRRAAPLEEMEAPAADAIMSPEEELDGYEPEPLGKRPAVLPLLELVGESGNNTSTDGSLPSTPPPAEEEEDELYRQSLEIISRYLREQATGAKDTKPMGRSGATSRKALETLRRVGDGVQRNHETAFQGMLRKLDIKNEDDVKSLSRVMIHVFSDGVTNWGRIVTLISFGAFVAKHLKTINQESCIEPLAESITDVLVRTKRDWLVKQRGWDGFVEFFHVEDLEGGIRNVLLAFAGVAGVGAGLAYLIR

As for `CCOC/C=C/C1=Cc2ccccc2[C@]12CC[C@@](Nc1cccc(Cl)c1)(C(=O)O)CC2` [Example 154, (1r,4r)-4-(3-chloroanilino)-2′-[(1E)-3-ethoxyprop-1-en-1-yl]spiro[cyclohexane-1,1′-indene]-4-carboxylic acid], the Ki was determined as 162 nM.

Consider `COc1ccc(CCCC2=Cc3ccccc3[C@]23CC[C@@](Nc2cccc(Cl)c2)(C(=O)O)CC3)cc1` [Example 155, (1r,4r)-4-(3-chloroanilino)-2′-[3-(4-methoxyphenyl)propyl]spiro[cyclohexane-1,1′-indene]-4-carboxylic acid], for which the Ki amounted to 710 nM.

As to `CCOCCCC1Cc2ccccc2[C@]12CC[C@@](Nc1cccc(Cl)c1)(C(=O)O)CC2` (some centres unmarked) [Example 156, (1r,4r)-4-(3-chloroanilino)-2′-(3-ethoxypropyl)-2′,3′-dihydrospiro[cyclohexane-1,1′-indene]-4-carboxylic acid], the Ki is 621 nM.

Regarding `O=C(O)[C@]1(Nc2cccc(Cl)c2)CC[C@]2(CC1)C(CCCc1ccc(Cl)cc1)=Cc1ccccc12` [Example 157, (1r,4r)-4-(3-chloroanilino)-2′-[3-(4-chlorophenyl)propyl]spiro[cyclohexane-1,1′-indene]-4-carboxylic acid], the inhibition constant Ki stood at 846 nM.

Take `O=C(O)[C@]1(Nc2cccc(Cl)c2)CC[C@]2(CC1)C(/C=C/c1ccc(-c3ccccc3)cc1)=Cc1ccccc12` [Example 158, (1r,4r)-2′-[(E)-2-([1,1′-biphenyl]-4-yl)ethenyl]-4-(3-chloroanilino)spiro[cyclohexane-1,1′-indene]-4-carboxylic acid]: the Ki stood at 311 nM.

On to `C/C=C/C1=Cc2ccccc2[C@]12CC[C@@](Nc1cccc(Cl)c1)(C(=O)O)CC2` [Example 159, (1r,4r)-4-(3-chloroanilino)-2′-[(1E)-prop-1-en-1-yl]spiro[cyclohexane-1,1′-indene]-4-carboxylic acid], for which the inhibition constant Ki amounted to 233 nM.

With `O=C(O)[C@]1(Nc2cccc(Cl)c2)CC[C@]2(CC1)C(CCCCOc1ccccc1)=Cc1ccccc12` [Example 160, (1r,4r)-4-(3-chloroanilino)-2′-(4-phenoxybutyl)spiro[cyclohexane-1,1′-indene]-4-carboxylic acid], the Ki was 768 nM.

As for `COc1ccc(CCCC2Cc3ccccc3[C@]23CC[C@@](Nc2cccc(Cl)c2)(C(=O)O)CC3)cc1` (some centres unmarked) [Example 161, (1r,4r)-4-(3-chloroanilino)-2′-[3-(4-methoxyphenyl)propyl]-2′,3′-dihydrospiro[cyclohexane-1,1′-indene]-4-carboxylic acid], the Ki was found to be 447 nM.

Take `O=C(O)[C@]1(Nc2cccc(Cl)c2)CC[C@@]2(CC1)c1ccccc1CC2CCCc1ccc(Cl)cc1` (some centres unmarked) [Example 162, (1r,4r)-4-(3-chloroanilino)-2′-[3-(4-chlorophenyl)propyl]-2′,3′-dihydrospiro[cyclohexane-1,1′-indene]-4-carboxylic acid]: the Ki was determined as 558 nM.

In the case of `O=C(O)[C@]1(Nc2cccc(Br)c2)CC[C@@]2(CC1)c1ccccc1CC2CCc1cccc2[nH]ccc12` (some centres unmarked) [Example 163, (1r,4r)-4-(3-bromoanilino)-2′-[2-(1H-indol-4-yl)ethyl]-2′,3′-dihydrospiro[cyclohexane-1,1′-indene]-4-carboxylic acid], the Ki amounted to 679 nM.

With `O=C(O)[C@]1(Nc2cccc(Br)c2)CC[C@@]2(CC1)c1ccccc1CC2CCc1cccnc1` (some centres unmarked) [Example 164, (1r,4r)-4-(3-bromoanilino)-2′-[2-(pyridin-3-yl)ethyl]-2′,3′-dihydrospiro[cyclohexane-1,1′-indene]-4-carboxylic acid], the Ki came out at 600 nM.

As to `O=C(O)[C@]1(Nc2cccc(Br)c2)CC[C@@]2(CC1)C(C#CCOc1ccccc1)=Cc1ccccc12` [Example 165, (1r,4r)-4-(3-bromoanilino)-2′-(3-phenoxyprop-1-yn-1-yl)spiro[cyclohexane-1,1′-indene]-4-carboxylic acid], the inhibitory constant (Ki) was determined as 90400 nM.

As to `O=C(O)[C@]1(Nc2cccc(Cl)c2)CC[C@]2(CC1)C(CCNc1ccccc1)=Cc1ccccc12` [Example 166, (1r,4r)-2′-(2-anilinoethyl)-4-(3-chloroanilino)spiro[cyclohexane-1,1′-indene]-4-carboxylic acid], the inhibition constant (Ki) is 688 nM.

With `O=c1ccn(CCCC2Cc3ccccc3[C@]23CC[C@@](Nc2cccc(Cl)c2)(C(=O)O)CC3)cc1` (some centres unmarked) [Example 167, (1r,4r)-4-(3-chloroanilino)-2′-[3-(4-oxopyridin-1 (4H)-yl)propyl]-2′,3′-dihydrospiro[cyclohexane-1,1′-indene]-4-carboxylic acid], the Ki came out at 32700 nM.

With `O=C(O)[C@]1(Nc2cccc(Cl)c2)CC[C@]2(CC1)C(Cc1ccccc1)=Cc1ccccc12` [Example 168, (1r,4r)-2′-benzyl-4-(3-chloroanilino)spiro[cyclohexane-1,1′-indene]-4-carboxylic acid], the Ki worked out at 1670 nM.

Turning to `O=C(O)[C@]1(Nc2cccc(Cl)c2)CC[C@@]2(CC1)c1ccccc1CC2Cc1ccccc1` (some centres unmarked) [Example 169, (1r,4r)-2′-benzyl-4-(3-chloroanilino)-2′,3′-dihydrospiro[cyclohexane-1,1′-indene]-4-carboxylic acid], the Ki came out at 4770 nM.

`O=C(O)[C@]1(Nc2cccc(Cl)c2)CC[C@]2(CC1)C(C#Cc1ccccn1)=Cc1ccccc12` [Example 170, (1s,4s)-4-(3-chloroanilino)-2′-[(pyridin-2-yl)ethynyl]spiro[cyclohexane-1,1′-indene]-4-carboxylic acid]: the inhibition constant (Ki) came out at 1920 nM.

Consider `O=C(O)[C@]1(Nc2cccc(Cl)c2)CC[C@]2(CC1)C(CCOc1ccccc1)=Cc1ccccc12` [Example 171, (1r,4r)-4-(3-chloroanilino)-2′-(2-phenoxyethyl)spiro[cyclohexane-1,1′-indene]-4-carboxylic acid], for which the inhibition constant (Ki) was 51.4 nM.

As for `O=C(O)[C@]1(Nc2cccc(Cl)c2)CC[C@]2(CC1)C(C#Cc1ccncc1)=Cc1ccccc12` [Example 173, (1s,4s)-4-(3-chloroanilino)-2′-[(pyridin-4-yl)ethynyl]spiro[cyclohexane-1,1′-indene]-4-carboxylic acid], the inhibition constant Ki was 455 nM.

As to `COc1cc(OCCC2Cc3ccccc3[C@]23CC[C@@](Nc2cccc(Cl)c2)(C(=O)O)CC3)ccn1` (some centres unmarked) [Example 174, (1r,4r)-4-(3-chloroanilino)-2′-{2-[(2-methoxypyridin-4-yl)oxy]ethyl}-2′,3′-dihydrospiro[cyclohexane-1,1′-indene]-4-carboxylic acid], the inhibition constant Ki was 138 nM.

As for `O=C(O)[C@]1(Nc2cccc(Br)c2)CC[C@@]2(CC1)c1ccccc1CC2CCc1ccccn1` (some centres unmarked) [Example 175, (1r,4r)-4-(3-bromoanilino)-2′-[2-(pyridin-2-yl)ethyl]-2′,3′-dihydrospiro[cyclohexane-1,1′-indene]-4-carboxylic acid], the inhibition constant Ki came out at 1540 nM.

In the case of `O=C(O)[C@]1(Nc2cccc(Cl)c2)CC[C@@]2(CC1)c1ccccc1CC2CCOc1ccccc1` (some centres unmarked) [Example 177, (1r,4r)-4-(3-chloroanilino)-2′-(2-phenoxyethyl)-2′,3′-dihydrospiro[cyclohexane-1,1′-indene]-4-carboxylic acid], the Ki stood at 226 nM.

For `O=C(O)[C@]1(Nc2cccc(Cl)c2)CC[C@]2(CC1)C(COCc1ccccc1)=Cc1ccccc12` [Example 179, (1s,4s)-2′-[(benzyloxy)methyl]-4-(3-chloroanilino)spiro[cyclohexane-1,1′-indene]-4-carboxylic acid], the Ki worked out at 506 nM.
